Reference: ChEMBL document CHEMBL1268971, “4,5-Dihydro-1H-pyrazolo[4,3-h]quinazolines as potent and selective Polo-like kinase 1 (PLK1) inhibitors” (Bioorg Med Chem Lett, 2010)
Converted amounts (≈) assume the structure as drawn. The source made the active and inactive calls. The rule behind the calls is not given here.

Key:
[1] = tested on: A2780; test: Induction of cell cycle arrest in human A2780 cells assessed as accumulation at G2/M phase at 0.005 to 0.5 uM after 24 hrs; assay type: functional, cell-based
[2] = tested on: HCT-116; test: Induction of cell cycle arrest in human HCT116 cells assessed as accumulation at G2/M phase at 0.005 to 0.5 uM after 24 hrs; assay type: functional, cell-based
[3] = Solubility of the compound at pH 7; assay type: physicochemical; conditions: buffer
[4] = target: Cyclin-dependent kinase 2/cyclin A (Homo sapiens, UniProt P24941); test: Inhibition of CDK2/Cyclin A; assay type: protein-complex assay
[5] = Inhibition of casein kinase 2
[6] = target: T1, Receptor-type tyrosine-protein kinase FLT3 (Homo sapiens, UniProt P36888); test: Inhibition of FLT3
T1 sequence (P36888 whole entry): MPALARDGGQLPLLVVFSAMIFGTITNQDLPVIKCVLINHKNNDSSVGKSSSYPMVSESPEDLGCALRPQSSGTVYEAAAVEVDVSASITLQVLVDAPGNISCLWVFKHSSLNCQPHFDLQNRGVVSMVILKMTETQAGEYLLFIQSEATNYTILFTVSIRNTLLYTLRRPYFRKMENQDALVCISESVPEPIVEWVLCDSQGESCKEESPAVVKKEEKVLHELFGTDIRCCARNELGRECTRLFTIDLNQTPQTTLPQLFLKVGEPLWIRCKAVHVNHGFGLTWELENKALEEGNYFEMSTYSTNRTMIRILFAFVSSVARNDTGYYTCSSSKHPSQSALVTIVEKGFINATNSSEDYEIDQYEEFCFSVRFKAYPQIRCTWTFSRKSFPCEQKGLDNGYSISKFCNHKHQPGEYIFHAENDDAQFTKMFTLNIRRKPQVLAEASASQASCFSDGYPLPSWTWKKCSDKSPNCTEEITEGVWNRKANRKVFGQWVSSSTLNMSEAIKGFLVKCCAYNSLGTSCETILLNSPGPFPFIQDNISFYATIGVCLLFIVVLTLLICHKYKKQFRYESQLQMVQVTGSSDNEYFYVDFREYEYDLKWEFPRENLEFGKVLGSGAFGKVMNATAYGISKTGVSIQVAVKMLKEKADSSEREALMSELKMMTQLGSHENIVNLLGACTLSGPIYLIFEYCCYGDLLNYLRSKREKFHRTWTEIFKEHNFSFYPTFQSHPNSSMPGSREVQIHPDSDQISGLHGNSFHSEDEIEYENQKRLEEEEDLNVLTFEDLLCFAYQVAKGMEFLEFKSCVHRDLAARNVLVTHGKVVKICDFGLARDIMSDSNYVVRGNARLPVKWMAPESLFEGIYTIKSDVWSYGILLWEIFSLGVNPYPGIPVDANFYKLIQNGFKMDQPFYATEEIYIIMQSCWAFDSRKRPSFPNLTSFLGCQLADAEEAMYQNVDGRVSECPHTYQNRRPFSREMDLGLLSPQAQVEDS

[7] = target: Serine/threonine-protein kinase Nek6 (Homo sapiens, UniProt Q9HC98); test: Inhibition of NEK6
[8] = Inhibition of PDGFR
[9] = target: ALK tyrosine kinase receptor (Homo sapiens, UniProt Q9UM73); test: Inhibition of ALK
[10] = Solubility of the compound at 105 Tween 80; assay type: physicochemical
[11] = AUC (0 to infinity) in CD1 mouse at 10 mg/kg, iv administered as single dose by LC/MS/MS analysis; assay type: ADME, organism-based; design: time infinity, dose 10 mg/kg, route intravenous; conditions: plasma
[12] = Clearance in CD1 mouse at 10 mg/kg, iv administered as single dose by LC/MS/MS analysis; assay type: ADME, organism-based; design: dose 10 mg/kg, route intravenous; conditions: in vivo
[13] = Volume of distribution at steady state in CD1 mouse at 10 mg/kg, iv administered as single dose by LC/MS/MS analysis; assay type: ADME, organism-based; design: dose 10 mg/kg, route intravenous; conditions: in vivo, read-out: Vdss
[14] = Cmax in CD1 mouse at 10 mg/kg, po administered as single dose by LC/MS/MS analysis; assay type: ADME, organism-based; design: dose 10 mg/kg, route oral; conditions: in vivo
[15] = AUC (0 to infinity) in CD1 mouse at 10 mg/kg, po administered as single dose by LC/MS/MS analysis; assay type: ADME, organism-based; design: time infinity, dose 10 mg/kg, route oral; conditions: plasma
[16] = Terminal half life in CD1 mouse at 10 mg/kg, po administered as single dose by LC/MS/MS analysis; assay type: ADME, organism-based; design: dose 10 mg/kg, route oral; conditions: in vivo, read-out: beta t1/2 (converted)
[17] = tested on: HT-29; test: Antiproliferative activity against human HT-29 cells after 72 hrs by CellTiter-Glo assay; assay type: functional, cell-based; conditions: HT-29, 72 h
[18] = tested on: HCT-116; test: Antiproliferative activity against human HCT116 cells after 72 hrs by CellTiter-Glo assay; assay type: functional, cell-based; conditions: HCT-116, 72 h
[19] = Antiproliferative activity against human 1A9PTX22 cells after 72 hrs by CellTiter-Glo assay; assay type: functional, cell-based; conditions: 1A9/ptx-22, 72 h
[20] = tested on: A2780; test: Antiproliferative activity against […] human A2780 cells after 72 hrs by CellTiter-Glo assay; assay type: functional, cell-based; conditions: A2780, 72 h
[21] = Antiproliferative activity against human A2780/E6 cells after 72 hrs by CellTiter-Glo assay; assay type: functional, cell-based; conditions: A2780/E6, 72 h
[22] = tested on: HL-60; test: Antiproliferative activity against human HL60 cells after 72 hrs by CellTiter-Glo assay; assay type: functional, cell-based; conditions: HL-60, 72 h
[23] = Antiproliferative activity against human KU812 cells after 72 hrs by CellTiter-Glo assay; assay type: functional, cell-based; conditions: KU812, 72 h
[24] = Antiproliferative activity against human KMS11 cells after 72 hrs by CellTiter-Glo assay; assay type: functional, cell-based; conditions: KMS-11, 72 h
[25] = tested on: U2OS; test: Induction of cell cycle arrest in human U2OS cells assessed as pSer46 TCTP signal inhibition of after 1 hr by array scan assay; assay type: functional, cell-based
[26] = tested on: A2780; test: Antitumor against human A2780 cells xenografted in CD1 mouse assessed as tumor growth inhibition at 30 mg/kg, iv BID administered on day 1, 2, 3 post-implantation measured on day 12; assay type: functional; conditions: read-out: TGI
[27] = tested on: Mus musculus; test: Toxicity in CD1 mouse xenografted with human A2780 cells assessed as reversible body weight loss at 30 mg/kg, iv BID administered on day 1, 2, 3 post-implantation measured on day 12; assay type: organism-based; design: dose 30 mg/kg, route intravenous; conditions: in vivo
[28] = tested on: A2780; test: Induction of apoptosis in human A2780 cells assessed as induction of PARP cleavage at 0.005 to 0.5 uM after 24 hrs
[29] = tested on: U2OS; test: Induction of cell cycle arrest in human U2OS cells assessed as accumulation of cyclin B1-positive cells at 320 nM after 24 hrs by array scan assay
[30] = tested on: HCT-116; test: Antitumor against human HCT116 cells xenografted in CD1 mouse assessed as tumor growth inhibition at 60 mg/kg, po daily administered on day 1, 2, 3 post-implantation for 2 cycles; conditions: HCT-116, po, read-out: TGI
[31] = tested on: Mus musculus; test: Toxicity in CD1 mouse xenografted with human HCT116 cells assessed as reversible body weight loss at 30 mg/kg, iv BID administered on day 1, 2 post-implantation in weekly schedule of 3 cycles measured on day 32; conditions: in vivo

Chain of ALK tyrosine kinase receptor (Q9UM73 whole entry): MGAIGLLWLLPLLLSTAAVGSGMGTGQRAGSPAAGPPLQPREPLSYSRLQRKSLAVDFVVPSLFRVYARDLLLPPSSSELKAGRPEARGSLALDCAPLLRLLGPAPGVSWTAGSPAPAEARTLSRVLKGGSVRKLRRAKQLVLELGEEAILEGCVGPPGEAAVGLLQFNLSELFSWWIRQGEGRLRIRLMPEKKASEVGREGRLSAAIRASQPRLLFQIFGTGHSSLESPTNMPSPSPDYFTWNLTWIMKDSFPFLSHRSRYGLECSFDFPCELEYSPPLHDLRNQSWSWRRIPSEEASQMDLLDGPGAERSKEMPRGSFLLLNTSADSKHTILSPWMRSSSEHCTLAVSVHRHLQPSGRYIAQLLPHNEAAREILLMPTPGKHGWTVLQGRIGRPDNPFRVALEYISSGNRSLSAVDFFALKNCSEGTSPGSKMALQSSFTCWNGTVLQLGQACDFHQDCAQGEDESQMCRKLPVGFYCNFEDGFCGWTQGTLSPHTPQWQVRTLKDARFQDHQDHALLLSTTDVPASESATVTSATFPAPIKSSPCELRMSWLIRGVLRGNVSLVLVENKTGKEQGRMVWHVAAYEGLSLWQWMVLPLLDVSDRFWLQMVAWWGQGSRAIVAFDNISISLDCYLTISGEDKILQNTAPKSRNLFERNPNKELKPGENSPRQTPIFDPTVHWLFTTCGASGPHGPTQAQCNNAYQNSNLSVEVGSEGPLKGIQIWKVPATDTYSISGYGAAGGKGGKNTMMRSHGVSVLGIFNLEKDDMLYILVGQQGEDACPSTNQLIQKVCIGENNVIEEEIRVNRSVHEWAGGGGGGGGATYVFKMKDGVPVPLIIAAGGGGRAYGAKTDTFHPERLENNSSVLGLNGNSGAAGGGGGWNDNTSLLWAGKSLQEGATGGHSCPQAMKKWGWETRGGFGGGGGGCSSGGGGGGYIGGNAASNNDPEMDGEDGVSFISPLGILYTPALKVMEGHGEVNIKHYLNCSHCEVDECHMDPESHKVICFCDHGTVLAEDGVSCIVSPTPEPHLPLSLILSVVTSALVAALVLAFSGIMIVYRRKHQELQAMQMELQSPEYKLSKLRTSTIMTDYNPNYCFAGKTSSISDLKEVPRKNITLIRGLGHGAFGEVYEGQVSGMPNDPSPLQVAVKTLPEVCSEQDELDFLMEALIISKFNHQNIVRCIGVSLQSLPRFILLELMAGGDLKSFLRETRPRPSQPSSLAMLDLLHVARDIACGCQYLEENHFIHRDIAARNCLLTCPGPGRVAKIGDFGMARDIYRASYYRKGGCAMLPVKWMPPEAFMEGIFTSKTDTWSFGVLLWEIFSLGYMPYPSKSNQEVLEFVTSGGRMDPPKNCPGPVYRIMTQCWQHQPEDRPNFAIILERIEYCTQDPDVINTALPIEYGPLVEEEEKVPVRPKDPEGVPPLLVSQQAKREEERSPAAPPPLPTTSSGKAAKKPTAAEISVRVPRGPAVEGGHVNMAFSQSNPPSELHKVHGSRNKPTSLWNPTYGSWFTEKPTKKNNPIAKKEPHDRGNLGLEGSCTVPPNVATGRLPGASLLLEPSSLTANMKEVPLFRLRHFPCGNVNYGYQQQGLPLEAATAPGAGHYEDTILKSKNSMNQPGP
Chain of Serine/threonine-protein kinase Nek6 (Q9HC98 whole entry): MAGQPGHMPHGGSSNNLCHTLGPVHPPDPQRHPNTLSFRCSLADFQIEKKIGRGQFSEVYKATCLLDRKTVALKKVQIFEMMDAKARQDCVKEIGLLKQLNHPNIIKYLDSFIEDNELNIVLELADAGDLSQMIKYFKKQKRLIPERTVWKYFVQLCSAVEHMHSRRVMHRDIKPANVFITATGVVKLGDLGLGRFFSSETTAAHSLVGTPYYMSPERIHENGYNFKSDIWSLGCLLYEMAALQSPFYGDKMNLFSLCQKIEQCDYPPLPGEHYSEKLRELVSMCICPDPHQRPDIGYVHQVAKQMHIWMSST

With `CN1CCN(c2ccc(OC(F)(F)F)c(Nc3ncc4c(n3)-c3c(c(C(N)=O)nn3C)CC4)c2)CC1` the Activity [1] was “Active”, the Activity [2] was “Active” and the solubility [3] was 72 µM (≈ 36.2 µg/mL). For the same compound, the IC50 [4] was over 10000 nM, the IC50 [5] was 140 nM and the IC50 [6] was 1520 nM. For the same compound, the IC50 [7] was 1660 nM, the IC50 [8] was over 10000 nM and the IC50 [9] was over 10000 nM. The solubility [10] was over 3200 µg/mL, the AUC(0-inf) [11] was 4.97 µM·h and the clearance [12] was 70.2 mL/min/kg. It also gave a Vd [13] of 3.39 L/kg, a Cmax [14] of 290 nM and an AUC(0-inf) [15] of 1.04 µM·h. It also gave a half-life [16] of 1.44 h, an IC50 [17] of 8 nM and an IC50 [18] of 41 nM. For the same compound, the IC50 [19] was 38 nM, the IC50 [20] was 21 nM and the IC50 [21] was 5 nM. For the same compound, the IC50 [22] was 16 nM, the IC50 [23] was 2 nM and the IC50 [24] was 14 nM. The IC50 [25] was 95 nM, the inhibition in vivo at 30 mg/kg [26] was 74% and the Activity [27] was 19%. For the same compound, the Activity [28] was “Active”, the Activity [29] was 20% and the inhibition in vivo at 60 mg/kg [30] was 70%. The Activity [31] was 14%.
